One molecule from patent publication US5081114A, “Steroids” (Roussel Uclaf, priority 1989, dated 1992) can be followed below.

The assay concerns the target T1, aromatase (Homo sapiens, UniProt P11511).
T1 construct: This supernatant was subjected to an ultracentrifugation stage for 90 minutes at 105,000 g to obtain the microsomal deposit; from tissue; host or cells: human placenta, microsomes
T1 sequence (P11511 1-503): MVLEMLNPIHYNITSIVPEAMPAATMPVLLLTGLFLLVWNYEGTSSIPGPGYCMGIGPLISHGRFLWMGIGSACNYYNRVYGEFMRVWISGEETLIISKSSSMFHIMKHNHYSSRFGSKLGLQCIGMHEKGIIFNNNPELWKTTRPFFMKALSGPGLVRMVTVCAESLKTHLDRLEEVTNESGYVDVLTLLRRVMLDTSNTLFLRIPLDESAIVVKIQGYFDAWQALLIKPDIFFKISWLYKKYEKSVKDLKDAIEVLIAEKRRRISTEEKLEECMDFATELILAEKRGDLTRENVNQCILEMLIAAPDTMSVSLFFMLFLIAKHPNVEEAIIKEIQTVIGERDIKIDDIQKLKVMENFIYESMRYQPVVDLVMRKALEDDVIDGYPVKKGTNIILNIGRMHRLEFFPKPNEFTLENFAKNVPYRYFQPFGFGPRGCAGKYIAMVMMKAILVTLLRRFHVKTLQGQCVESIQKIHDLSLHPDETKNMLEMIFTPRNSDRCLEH
Briefly: Inhibition of aromatase in placental microsomes (measurement of the CI50). The format is biochemical. To be noted: human placental microsomes (25 microgramms of proteins per test); 60 nM Androstenedione with 1β-2β-(H^3)-Androstenedione; NADPH; pH=7.2; 37° C., 10 minutes; tritiated water release; read-out: CI50 (concentration of the inhibitor necessary to reduce the enzymatic activity by 50%). Here is the method:
Inhibition dependent on the concentration (measurement of the CI50 =concentration of the inhibitor necessary to reduce the enzymatic activity by 50%).
Human placentas were used which were washed one hour at most after delivery, then perfused with physiological serum (5 liters) via the umbilical vein, then deep-frozen at -40° C.
1) Obtaining the placental microsomes
The placentas were thawed out at 4° C., then homogenized (1:3) in a 10 mM phosphate buffer, pH=7.0 containing 100 milimoles of potassium chloride (KCl), 10 millimoles of dithiothreitol (DTT), 10 millimoles of ethylenediaminetetra-acetic acid (EDTA), 40 millimoles of nicotinamide and 250 millimoles of sucrose. The homogenates were then subjected to different phases of centrifugation until a "9000 g" supernatant was obtained (corresponding to cytosol and to endosplasmic reticulum). […] The protein concentration of the microsomal suspension was determined by the BRADFORD method [BRADFORD, Anal. Biochem., Voml. […]
Then the enzymatic reaction was very rapidly initiated by the addition of 10 microliters of reduced nicotinamide adenine dinucleotide phosphate (NADPH) solubilized in water. […] After centrifugation, and for each tube, 100 microliters of supernatant was removed and counted in the presence of a scintillating liquid. […]

With `CC12CC=C3C(CCC4=CC(=O)CCC43CC=O)C1CCC2=O` (stereo not shown) [Example 3, ^4,9(11) -androstadiene-3,17-dione-19-carboxaldehyde], the IC50 turned out to be 85 nM.
